From paper PMC4839570, “Novel Anthra[1,2-c][1,2,5]Thiadiazole-6,11-Diones as Promising Anticancer Lead Compounds: Biological Evaluation, Characterization & Molecular Targets Determination” (PLoS ONE, 2016)
Like-named read-outs stand apart in the source and are kept apart here.

Key:
CCRF-CEM = test: NCI-60 cytotoxicity screen; assay type: cell-based
A549/ATCC = test: NCI-60 cytotoxicity screen; assay type: cell-based
NCI-H522 = test: NCI-60 cytotoxicity screen; assay type: cell-based
HCC-2998 = test: NCI-60 cytotoxicity screen; assay type: cell-based
HCT-116 = test: NCI-60 cytotoxicity screen; assay type: cell-based
KM12 = test: NCI-60 cytotoxicity screen; assay type: cell-based
SF-539 = test: NCI-60 cytotoxicity screen; assay type: cell-based
LOX IMVI = test: NCI-60 cytotoxicity screen; assay type: cell-based
SK-MEL-28 = test: NCI-60 cytotoxicity screen; assay type: cell-based
IGROV1 = test: NCI-60 cytotoxicity screen; assay type: cell-based
NCI/ADR-RES = test: NCI-60 cytotoxicity screen; assay type: cell-based
SK-OV-3 = test: NCI-60 cytotoxicity screen; assay type: cell-based
CAKI-1 = test: NCI-60 cytotoxicity screen; assay type: cell-based
DU-145 = test: NCI-60 cytotoxicity screen; assay type: cell-based
MDA-MB-231/ATCC = test: NCI-60 cytotoxicity screen; assay type: cell-based
T-47D = test: NCI-60 cytotoxicity screen; assay type: cell-based
SF-268 = test: JFCR-39 cytotoxicity screen; assay type: cell-based
KM-12 = test: JFCR-39 cytotoxicity screen; assay type: cell-based
NCI-H226 = test: JFCR-39 cytotoxicity screen; assay type: cell-based
NCI-H460 = test: JFCR-39 cytotoxicity screen; assay type: cell-based
A549 = test: JFCR-39 cytotoxicity screen; assay type: cell-based
DMS114 = test: JFCR-39 cytotoxicity screen; assay type: cell-based
LOX-IMVI = test: JFCR-39 cytotoxicity screen; assay type: cell-based
OVCAR-4 = test: JFCR-39 cytotoxicity screen; assay type: cell-based
ACHN = test: JFCR-39 cytotoxicity screen; assay type: cell-based
MKN1 = test: JFCR-39 cytotoxicity screen; assay type: cell-based
[1] = test system: NF-κB p65 subunit in OVCAR-3 cells; test: Western blotting of nuclear and cytosolic fractions; assay type: cell-based, human; conditions: OVCAR-3 nuclear fraction
Protocol: Treated cells were fractionated into nuclear and cytosolic fractions using the Nuclear/Cytosol fractionation kit (BioVision), separated by electrophoresis in SDS-PAGE gels and transferred to Amersham Hybond-P PVDF Membranes. Membranes were probed with either anti-NF-κB p65 rabbit monoclonal primary antibody [E379] Abcam # ab32536, anti-TATA binding protein (TBP) mouse antibody (1TBP18), or anti-beta Tubulin rabbit antibody [NB600-936]. After washing, membranes were incubated with either goat anti-rabbit IgG H&L (HRP) (ab6721), or rabbit anti-mouse IgG H&L (HRP) (ab6728) secondary antibodies. Membranes were developed using the Immobilon Western chemiluminescent HRP substrate kit. Protein bands were normalized to either the beta Tubulin or TBP bands and quantified using ImageJ software.

[2] = Homo sapiens, Fig 7, read-out: mean log10 of the GI50 values (converted)
[3] = Homo sapiens, five-dose, read-out: GI50
[4] = Homo sapiens, five-dose, read-out: LC50 (the source's name)
[5] = Homo sapiens, read-out: LC50 (the source's name)

Structure (SMILES): O=C1c2ccccc2C(=O)c2c1ccc1nsnc21 [NSC745885, anthra[1,2-c][1,2,5]thiadiazole-6,11-dione]
- GI50 (CCRF-CEM; [2]): 1.55 µM
- GI50 (CCRF-CEM; [3]): 1.08 µM
- CC50 (CCRF-CEM; [4]): > 100 µM
- TGI (CCRF-CEM; five-dose): 4.10 µM
- GI50 (A549/ATCC; [2]): 5.75 µM
- GI50 (A549/ATCC; [3]): 14.7 µM
- CC50 (A549/ATCC; [4]): 91 µM
- TGI (A549/ATCC; five-dose): 36.6 µM
- GI50 (NCI-H522; [2]): 2.24 µM
- GI50 (NCI-H522; [3]): 1.66 µM
- CC50 (NCI-H522; [4]): 9.31 µM
- TGI (NCI-H522; five-dose): 3.93 µM
- GI50 (HCC-2998; [2]): 5.89 µM
- LC50 (concentration causing 50% net cell kill) (HCC-2998; Homo sapiens, five-dose): 66.6 µM
- GI50 (HCC-2998; [3]): 16.4 µM
- TGI (HCC-2998; five-dose): 33.1 µM
- GI50 (HCT-116; [2]): 2.34 µM
- GI50 (HCT-116; [3]): 1.93 µM
- CC50 (HCT-116; [4]): > 100 µM
- TGI (HCT-116; five-dose): 5.40 µM
- GI50 (KM12; [2]): 4.68 µM
- GI50 (KM12; [3]): 1.96 µM
- CC50 (KM12; [4]): 59.7 µM
- TGI (KM12; five-dose): 5.54 µM
- GI50 (SF-539; [2]): 1.48 µM
- GI50 (SF-539; [3]): 1.46 µM
- CC50 (SF-539; [4]): 5.91 µM
- TGI (SF-539; five-dose): 2.94 µM
- GI50 (LOX IMVI; Homo sapiens, LOXIMVI, Fig 7, read-out: mean log10 of the GI50 values (converted)): 0.912 µM
- GI50 (LOX IMVI; [3]): 0.82 µM
- CC50 (LOX IMVI; [4]): 4.86 µM
- TGI (LOX IMVI; five-dose): 2.13 µM
- GI50 (SK-MEL-28; [2]): 4.27 µM
- GI50 (SK-MEL-28; [3]): 1.85 µM
- CC50 (SK-MEL-28; [4]): 6.18 µM
- TGI (SK-MEL-28; five-dose): 3.38 µM
- GI50 (IGROV1; Homo sapiens, IGROV-1, Fig 7, read-out: mean log10 of the GI50 values (converted)): 1.38 µM
- GI50 (IGROV1; Homo sapiens, IGROV-1, five-dose, read-out: GI50): 1.36 µM
- CC50 (IGROV1; Homo sapiens, IGROV-1, five-dose, read-out: LC50 (the source's name)): 6.35 µM
- TGI (IGROV1; five-dose): 2.94 µM
- GI50 (NCI/ADR-RES; [2]): 0.891 µM
- GI50 (NCI/ADR-RES; [3]): 1.86 µM
- CC50 (NCI/ADR-RES; [4]): > 100 µM
- TGI (NCI/ADR-RES; five-dose): 12.6 µM
- GI50 (SK-OV-3; [2]): 4.17 µM
- GI50 (SK-OV-3; [3]): 7.71 µM
- CC50 (SK-OV-3; [4]): 53.4 µM
- TGI (SK-OV-3; five-dose): 22.5 µM
- GI50 (CAKI-1; [2]): 1.86 µM
- GI50 (CAKI-1; [3]): 1.61 µM
- CC50 (CAKI-1; [4]): 5.44 µM
- TGI (CAKI-1; five-dose): 2.96 µM
- GI50 (DU-145; [2]): 3.55 µM
- GI50 (DU-145; [3]): 1.67 µM
- CC50 (DU-145; [4]): 6.27 µM
- TGI (DU-145; five-dose): 3.24 µM
- GI50 (MDA-MB-231/ATCC; [2]): 2.14 µM
- GI50 (MDA-MB-231/ATCC; [3]): 1.75 µM
- CC50 (MDA-MB-231/ATCC; [4]): > 100 µM
- TGI (MDA-MB-231/ATCC; five-dose): 5.90 µM
- GI50 (T-47D; Homo sapiens, T47D, Fig 7, read-out: mean log10 of the GI50 values (converted)): 0.724 µM
- GI50 (T-47D; Homo sapiens, T47D, five-dose, read-out: GI50): 1.39 µM
- CC50 (T-47D; Homo sapiens, T47D, five-dose, read-out: LC50 (the source's name)): 8.27 µM
- TGI (T-47D; five-dose): 3.39 µM
- TGI (SF-268): 3.8 µM
- GI50 (SF-268; Homo sapiens): 2 µM
- CC50 (SF-268; [5]): 7.1 µM
- TGI (KM-12): 5.4 µM
- GI50 (KM-12; Homo sapiens, KM12): 2.3 µM
- CC50 (KM-12; Homo sapiens, KM12, read-out: LC50 (the source's name)): 25 µM
- TGI (NCI-H226): 3.4 µM
- GI50 (NCI-H226; Homo sapiens): 1.6 µM
- CC50 (NCI-H226; [5]): 7.3 µM
- TGI (NCI-H460): 13.0 µM
- GI50 (NCI-H460; Homo sapiens): 3.4 µM
- CC50 (NCI-H460; [5]): 67 µM
- TGI (A549): 41.0 µM
- GI50 (A549; Homo sapiens): 19 µM
- CC50 (A549; [5]): 89 µM
- TGI (DMS114): 1.8 µM
- GI50 (DMS114; Homo sapiens, DMS-114): 0.5 µM
- CC50 (DMS114; Homo sapiens, DMS-114, read-out: LC50 (the source's name)): 5 µM
- TGI (LOX-IMVI): 4.2 µM
- GI50 (LOX-IMVI; Homo sapiens): 0.86 µM
- CC50 (LOX-IMVI; [5]): > 100 µM
- TGI (OVCAR-4): 2.9 µM
- GI50 (OVCAR-4; Homo sapiens): 1.5 µM
- CC50 (OVCAR-4; [5]): 5.5 µM
- TGI (ACHN): 3.8 µM
- GI50 (ACHN; Homo sapiens): 1.9 µM
- CC50 (ACHN; [5]): 7.6 µM
- TGI (MKN1): 1.5 µM
- GI50 (MKN1; Homo sapiens, MKN-1): 0.47 µM
- CC50 (MKN1; Homo sapiens, MKN-1, read-out: LC50 (the source's name)): 4.3 µM
- dose of almost complete inhibition of nuclear NF-κB p65 expression [1]: 2.4 µM
